Source: patent publication US20250179033A1 (priority 2021, published 2025)
Values joined by “and” are separate entries in the source; they are usually repeats but may differ in a detail not shown here. Identical values can stand only once. Like-named read-outs stand apart in the source and are kept apart here.

Tests used:
CYP2C9 = CYP2C9 (Homo sapiens, UniProt P11712); test: Human CYP inhibition in human liver microsomes; type: in vitro ADME; conditions: substrate diclofenac, read-out: CYP inhibition IC50, 2C9
Description: (§1) Study samples (containing either control inhibitor or test compound) were added into the tubes, vortexed gently and pre-incubated for 5 min at 37° C. 20 μL of NADPH solution was aliquoted into all tubes, then vortexed to start the reaction and to assure adequate mixture of the NADPH. After mixing, the tubes were incubated for 20 min at 37° C. in a shaking water bath and then quenched in […] formic acid/acetonitrile solution. After quenching, the samples were vortexed vigorously for 1 min and centrifuged at 4,000 rpm for 15 min (4° C.). 100 μL of supernatant was transferred to 0.65 ml tubes for LCMS analysis by the bioanalytical method described earlier. The CYP450 substrates and control inhibitors for each enzyme was as follows: CYP1A2 (phenacetin, naphthoflavone), CYP2C9 (diclofenac, sulfaphenazole), CYP2C19 (omeprazole, tranylcypromine), CYP2D6 (dextromethorphan, quinidine), CYP3A4 (midazolam, ketoconazole).

CYP2C19 = CYP2C19 (Homo sapiens, UniProt P33261); test: Human CYP inhibition in human liver microsomes; type: in vitro ADME; conditions: substrate omeprazole, read-out: CYP inhibition IC50, 2C19
Description: as §1

THP-1 = test: 99% toxic dose (TD99) in THP-1; type: cell-based
[1] = In vivo pharmacokinetics, plasma and brain; parameters: species or system Balb/C male mice; conditions: 250 mg/kg intragastric; for AUC(0-inf) / MRT / half-life / AUC(0-t) / Cmax: male, Balb/C, mouse, po; for AUC(0-inf) / MRT / half-life / AUC(0-t) / Cmax / CL / Kel / Vd: plasma; for AUC(0-t): read-out: AUC0-7
Description: The pharmacokinetics of compound 1 was studied in white Balb/C male mice. 22 animals with an average body weight of 20 g were selected for the study. Before the study, the animals were kept on a standard vivarium ration with dry pelleted feed. All the test animals had free access to water but were deprived of food for 1 hour before administration of the compound. This regimen was continued for another hour after the administration.
Compound 1 in a dose of 250 mg/kg of body weight was administered as 0.5 ml of prepared suspension in 0.5% CMC by intragastric intubation. The animals were euthanized by decapitation for blood and brain sampling. Blood and brain samples (3 animals per time point) were taken at 0.5, 1, 2, 3, 5 and 7 hours after administration for pharmacokinetic evaluation. Blood was collected in heparinized tubes and centrifuged at 3500 RPM. Plasma was separated from formed elements and immediately frozen at −20° C. in freezer. This storage continued before transferring plasma for analysis. Serum from 6 untreated animals was used as a control and for equipment calibration with the compound. Mice brain was immediately frozen at −120° C.
Plasma separation: Samples of experimental blood ([…]) from animals were centrifuged at 3500 rpm for 15 minutes.
Sample preparation: A mixture of 60 μL of plasma and 180 μL of acetonitrile (MeCN) by intensive shaking (Vortex) for 30 sec. Centrifugation 32000 g for 4 min. After centrifugation the 150 μL of organic layer was injected into the HPLC column.
Equipment: HPLC System Agilent 1290 Infinity, MS spectrometer Agilent 6460 (Agilent Technologies, Santa Clara, California, United States of America)
HPLC conditions: Column: Agilent Eclipse Plus C18 RRHD 1.8 um 2.1×50 mm (Agilent Technologies, Santa Clara, California, United States of America), Temperature: 40° C., Flow speed: 0.4 mL/min
Eluent: A: water, 0.1% formic acid; B: 85% acetonitrile in water, 0.1% formic acid
Gradient: 0.0-3.0 min: 60% B (separation), 3.0-4.0 min: 60->97% B (washing and regeneration), 4.0-6.0 min: 97% B, 6.0-6.1 min: 97->60% B, 6.1-9.0 min: 60% B, Volume of sample: 2 μL. Retention time in above conditions: 2.40 min.
MS conditions: ESI(+), MRM 400->209, Dwell time: 200 ms, Fragmentor: 135 V, Collision energy: 12, Cell Accelerator: 3 V, Gas Temp: 350° C., Gas Flow: 12 I/min, Nebulizer: 35 psi, Sheath gas Temp: 300° C., Capillary Voltage: 3500 V, Nozzle Voltage: 450 V; Diverter valve: 0.0-1.3 min: to waste; 1.3-3.0 min: to MS, data acquisition, 3.0-7.0 min: to MS, idle, 7.0- . . . min: to waste
Brain separation: Samples of experimental brain from animals were dispersed at 25K turn/min for 3 minutes and 100 mg of each sample was balanced to a sterile container.
Sample preparation: A mixture of 100 mg of brain and 100 μL of water was treated by zirconium balls in a homogonisator MagNA Lyser for 30 sec. 300 μL of MeCN was added and intensive shaking (Vortex) for 30 sec was performed. Centrifugation 32000 g for 4 min.
Equipment: HPLC System Agilent 1290 Infinity, MS spectrometer Agilent 6460 (Agilent Technologies, Santa Clara, California, United States of America).
HPLC conditions: Column: Agilent Eclipse Plus C18 RRHD 1.8 um 2.1×50 mm (Agilent Technologies, Santa Clara, California, United States of America), Temperature: 40° C., Flow speed: 0.4 mL/min.
Eluent: A: water, 0.1% formic acid; B: 85% acetonitrile in water, 0.1% formic acid.
Gradient: 0.0-3.0 min: 60% B (separation), 3.0-4.0 min: 60->97% B (washing and regeneration), 4.0-6.0 min: 97% B, 6.0-6.1 min: 97->60% B, 6.1-9.0 min: 60% B, Volume of sample: 2 μL.
Retention time in above conditions: 2.40 min […]

Sequence of CYP2C19 (P33261 whole entry): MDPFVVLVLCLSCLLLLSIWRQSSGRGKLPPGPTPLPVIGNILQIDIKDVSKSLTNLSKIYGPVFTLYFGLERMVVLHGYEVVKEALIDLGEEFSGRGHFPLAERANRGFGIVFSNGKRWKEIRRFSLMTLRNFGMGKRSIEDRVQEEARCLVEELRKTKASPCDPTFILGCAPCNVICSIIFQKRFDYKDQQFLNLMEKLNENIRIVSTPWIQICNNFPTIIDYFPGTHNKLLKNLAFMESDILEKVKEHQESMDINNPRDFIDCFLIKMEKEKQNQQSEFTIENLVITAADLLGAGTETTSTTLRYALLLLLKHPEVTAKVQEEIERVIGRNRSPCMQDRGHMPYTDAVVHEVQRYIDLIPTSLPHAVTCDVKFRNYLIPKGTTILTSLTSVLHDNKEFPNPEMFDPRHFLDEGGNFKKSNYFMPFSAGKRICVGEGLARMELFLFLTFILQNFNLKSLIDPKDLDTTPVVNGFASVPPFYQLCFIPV
Sequence of CYP2C9 (P11712 whole entry): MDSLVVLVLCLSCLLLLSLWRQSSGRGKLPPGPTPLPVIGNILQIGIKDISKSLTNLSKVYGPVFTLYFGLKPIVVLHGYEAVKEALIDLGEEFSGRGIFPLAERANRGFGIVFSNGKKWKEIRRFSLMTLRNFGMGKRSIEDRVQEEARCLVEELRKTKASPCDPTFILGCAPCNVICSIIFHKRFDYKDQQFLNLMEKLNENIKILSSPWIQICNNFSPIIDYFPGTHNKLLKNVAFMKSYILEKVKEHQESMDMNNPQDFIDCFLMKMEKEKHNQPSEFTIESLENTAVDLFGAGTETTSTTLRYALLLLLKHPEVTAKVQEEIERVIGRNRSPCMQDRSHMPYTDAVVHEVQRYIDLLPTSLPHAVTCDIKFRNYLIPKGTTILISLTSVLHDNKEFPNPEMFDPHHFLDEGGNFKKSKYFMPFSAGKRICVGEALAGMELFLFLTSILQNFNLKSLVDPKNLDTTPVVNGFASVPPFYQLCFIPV

N#C/C=C/c1ccc2c(S(=O)(=O)n3nc(Nc4ccc(C#N)c(Cl)c4)nc3N)cccc2c1 [Compound 20, 4-[[5-amino-1-[[6-[2-cyanovinyl]-1-naphthyl]sulfonyl]-1,2,4-triazol-3-yl]amino]-2-chloro-benzonitrile]
IC50 (CYP2C9): 1.42 µM
IC50 (CYP2C19): 10.6 µM

Nc1nc(Nc2ccc(Cl)cc2)nn1S(=O)(=O)c1ccc2ccccc2c1 [Compound 1, N3-(4-chlorophenyl)-1-(2-naphthylsulfonyl)-1,2,4-triazole-3,5-diamine]
99% toxic dose (TD99) (THP-1): > 11 μg/ml and > 27.5 μM
AUC(0-inf) ([1]; 250 mg/kg, mean of mice groups): 6220 ng·h/mL
MRT ([1]; 250 mg/kg, mean of mice groups): 5.9 h
half-life ([1]; 250 mg/kg, mean of mice groups): 4.1 h
AUC(0-t) ([1]; 250 mg/kg, mean of mice groups): 4050 ng·h/mL
AUC(0-inf) ([1]; 250 mg/kg, mice group 1): 6230 ng·h/mL
Cmax ([1]; 250 mg/kg, mice group 1): 1050 ng/mL
MRT ([1]; 250 mg/kg, mice group 1): 7.4 h
half-life ([1]; 250 mg/kg, mice group 1): 5 h
AUC(0-t) ([1]; 250 mg/kg, mice group 1): 3710 ng·h/mL
AUC(0-inf) ([1]; 250 mg/kg, mice group 2): 6890 ng·h/mL
Cmax ([1]; 250 mg/kg, mice group 2): 1170 ng/mL
MRT ([1]; 250 mg/kg, mice group 2): 6.8 h
half-life ([1]; 250 mg/kg, mice group 2): 5 h
AUC(0-inf) ([1]; 250 mg/kg, mice group 3): 5550 ng·h/mL
Cmax ([1]; 250 mg/kg, mice group 3): 1350 ng/mL
MRT ([1]; 250 mg/kg, mice group 3): 3.6 h
half-life ([1]; 250 mg/kg, mice group 3): 2.4 h
AUC(0-t) ([1]; 250 mg/kg, mice group 3): 4080 ng·h/mL
concentrations of the compound in brain ([1]; mice, preliminary, 250 mg/kg): 1-5 μg/ml and 2.5-12.5 μM
CL ([1]; mean of mice groups): 0.809 L/h
Kel ([1]; mean of mice groups): 0.1872 h⁻¹
Vd ([1]; mean of mice groups): 4.8 L
CL ([1]; mice group 1): 0.803 L/h
Kel ([1]; mice group 1): 0.1382 h⁻¹
Vd ([1]; mice group 1): 5.8 L
CL ([1]; mice group 2): 0.725 L/h
Kel ([1]; mice group 2): 0.1381 h⁻¹
Vd ([1]; mice group 2): 5.3 L
CL ([1]; mice group 3): 0.901 L/h
Kel ([1]; mice group 3): 0.2852 h⁻¹
Vd ([1]; mice group 3): 3.2 L
